Laboratory results: patent US9204645B2, “Insecticidal aromatic amides” (BAYER INTELLECTUAL PROPERTY GMBH, priority 2011, dated 2015)
Like-named read-outs stand apart in the source and are kept apart here.

Assays:
[1] = system: greenhouse red spider mite (Tetranychus urticae); test: Tetranychus urticae drench test, OP-resistant, systemic treatment (TETRUR sys.); assay type: in vivo; settings: soil, 336 h, 14 dat
Procedure: Tetranychus urticae—Drench Test, OP-resistant, systemic treatment (TETRUR sys.)
• Solvent: 7 parts by weight of dimethylformamide • Emulsifier: 2 parts by weight of alkylaryl polyglycol ether
(§1) To produce a suitable preparation of active compound, 1 part by weight of active compound is mixed with the stated amounts of solvent and emulsifier, and the concentrate is diluted with water to the desired concentration. If the addition of ammonium salts or/and penetrants is required, these are in each case added in a concentration of 1000 ppm to the solution of the preparation.
Bean plants (Phaseolus vulgaris) which are heavily infested by all stages of the greenhouse red spider mite (Tetranychus urticae) are watered with an active compound preparation of the desired concentration.
(§2) After the desired period of time, the effect in % is determined. 100% means that all of the spider mites have been killed; 0% means that none of the spider mites have been killed.

[2] = system: greenhouse red spider mite (Tetranychus urticae); test: Tetranychus urticae spray test, OP-resistant (TETRUR), bean plants; assay type: in vivo; settings: 168 h, 7 dat
Procedure: Tetranychus urticae—Spray Test, OP-resistant (TETRUR) • Solvent: 7 parts by weight of dimethylformamide • Emulsifier: 2 parts by weight of alkylaryl polyglycol ether
as §1, with “diluted with emulsifier-containing water to” for “diluted with water to”
Bean plants (Phaseolus vulgaris) which are heavily infested by all stages of the greenhouse red spider mite (Tetranychus urticae) are sprayed with an active compound preparation of the desired concentration.
as §2

[3] = system: larvae of the mustard beetle (Phaedon cochleariae); test: Phaedon cochleariae spray test (PHAECO); assay type: in vivo; settings: for efficacy compared to similar compounds of the prior art: PHAECO spray test; for inhibition at 20 g/ha / inhibition at 100 g/ha: Phaedon cochleariae, 168 h; for inhibition at 20 g/ha: read-out: % Activity
Procedure: Phaedon Cochleariae—Spray Test (PHAECO)
(§3) • Solvents: 78.0 parts by weight of acetone • 1.5 parts by weight of dimethylformamide • Emulsifier: 0.5 part by weight of alkylaryl polyglycol ether
(§4) To produce a suitable preparation of active compound, 1 part by weight of active compound is mixed with the stated amounts of solvents and emulsifier, and the concentrate is diluted with emulsifier-containing water to the desired concentration.
After the desired period of time, the effect in % is determined 100% means that all of the beetle larvae have been killed; 0% means that none of the beetle larvae have been killed.

[4] = system: greenhouse red spider mite (Tetranychus urticae); test: Tetranychus urticae spray test, OP-resistant (TETRUR), bean leaf discs; assay type: in vivo; settings: for efficacy compared to similar compounds of the prior art: TETRUR spray test, leaf discs
Procedure: Tetranychus urticae—Spray Test; OP-resistant (TETRUR)
as §3, §4
Discs of bean leaves (Phaseolus vulgaris) which are infested by all stages of the greenhouse red spider mite (Tetranychus urticae) are sprayed with an active compound preparation of the desired concentration.
as §2

[5] = system: green peach aphid (Myzus persicae); test: Myzus spray test (MYZUPE); assay type: in vivo; settings: for efficacy compared to similar compounds of the prior art: MYZUPE spray test
Procedure: Myzus—Spray Test (MYZUPE)
as §3, §4
Discs of Chinese cabbage leaves (Brassica pekinensis) infested by all stages of the green peach aphid (Myzus persicae) are sprayed with an active compound preparation of the desired concentration.
After the desired period of time, the effect in % is determined. 100% here means that all of the aphids have been killed; 0% means that no aphids have been killed.

[6] = system: caterpillars of the armyworm (Spodoptera frugiperda); test: Spodoptera frugiperda spray test (SPODFR); assay type: in vivo; settings: 168 h, 7 dat
Procedure: Spodoptera frugiperda—Spray Test (SPODFR)
as §4, with “• Solvents: 78.0 parts by weight of acetone • 1.5 parts by weight of dimethylformamide • Emulsifier: 0.5 part by weight of alkylaryl polyglycol ether • To” for “To”
Leaf discs of maize (Zea mays) are sprayed with an active compound preparation of the desired concentration and, after drying, populated with caterpillars of the armyworm (Spodoptera frugiperda).
After the desired period of time, the effect in % is determined. 100% means that all of the caterpillars have been killed; 0% means that none of the caterpillars have been killed.

[7] = logP determination by HPLC on a reversed-phase column (C18), EEC Directive 79/831 Annex V.A8; assay type: physicochemical; settings: HPLC-MS, C18, acetonitrile (0.1% formic acid)/water (0.09% formic acid) gradient, read-out: log P
Procedure: HPLC-MS^a): mass (m/z)=462 […]. ^a) Note regarding the determination of the logP values and mass detection: The determination of the given logP values was carried out in accordance with EEC Directive 79/831 Annex V.A8 by HPLC (High Performance Liquid Chromatography) on a reversed-phase column (C18). Agilent 1100 LC system; 50*4.6 Zorbax Eclipse Plus C18 1.8 micron; mobile phase A: acetonitrile (0.1% formic acid); mobile phase B: water (0.09% formic acid); linear gradient from 10% acetonitrile to 95% acetonitrile in 4.25 min, then 95% acetonitrile for a further 1.25 min; oven temperature 55° C.; flow rate: 2.0 ml/min Mass detection is via an Agilent MSD system.
The calibration is carried out using unbranched alkan-2-ones (having 3 to 16 carbon atoms) with known logP values (determination of the logP values by the retention times using linear interpolation between two successive alkanones). The lambda-maX values were determined in the maxima of the chromatographic signals using the UV spectra from 200 nm to 400 nm.

[8] = Tetranychus urticae, foliar, 144 h, TETRUR, 500 g/ha, 6 dat, read-out: % Activity
[9] = Myzus persicae, 144 h, MYZUPE, 6 dat

CCNC(=O)c1cc(NC(=O)c2c(C(F)(F)F)c(C(F)(F)C(F)(F)F)nn2C)ccc1Cl [Example Ik-66, reference compound]
inhibition at 20 ppm [1]: 30% | inhibition at 20 ppm [2]: 0%

CCC(=O)NCc1cc(N(CC)C(=O)c2c(C(F)(F)F)c(C(F)(F)C(F)(F)F)nn2C)ccc1F [Example 3]
efficacy compared to similar compounds of the prior art [3]: superior efficacy | inhibition at 20 g/ha ([3]; PHAECO, 20 g/ha, 7 dat): 100% | efficacy compared to similar compounds of the prior art [4]: superior efficacy | inhibition at 500 g/ha [4, 8]: 100% | efficacy compared to similar compounds of the prior art [5]: superior efficacy | inhibition at 20 g/ha ([5]; Myzus persicae, 144 h, MYZUPE, 20 g/ha, 6 dat, read-out: % Activity): 100%

CCC(=O)NCc1cc(NC(=O)c2c(C(F)(F)F)c(C(F)(F)C(F)(F)F)nn2C)ccc1F [Example 4]
efficacy compared to similar compounds of the prior art [3]: superior efficacy | inhibition at 20 g/ha ([3]; PHAECO, 20 g/ha, 7 dat): 100% | efficacy compared to similar compounds of the prior art [4]: superior efficacy | inhibition at 500 g/ha [4, 8]: 100% | efficacy compared to similar compounds of the prior art [5]: superior efficacy | inhibition at 500 g/ha [5, 9]: 100%

CCC(=O)NCc1c(F)ccc(NC(=O)c2c(C(F)(F)F)c(C(F)(F)C(F)(F)F)nn2C)c1F [Example 6]
efficacy compared to similar compounds of the prior art [3]: superior efficacy | inhibition at 100 g/ha ([3]; PHAECO, 7 dat): 100% | inhibition at 100 g/ha [6]: 100%

CC(C)NC(=O)c1c(F)ccc(NC(=O)c2c(C(F)(F)F)c(C(F)(F)C(F)(F)F)nn2C)c1F [Example Ik-74, reference compound]
inhibition at 100 g/ha ([3]; PHAECO, 7 dat): 33% | inhibition at 500 g/ha [4, 8]: 0% | inhibition at 100 g/ha [6]: 0% | inhibition at 500 g/ha [5, 9]: 0%

CCCC(=O)NCc1cc(NC(=O)c2c(C(F)(F)F)c(C(F)(F)C(F)(F)F)nn2C)ccc1Cl [Am-41, N-{3-[(butyrylamino)methyl]-4-chlorophenyl}-1-methyl-3-(pentafluoroethyl)-4-(trifluoromethyl)-1H-pyrazole-5-carboxamide]
chromatographic logP [7]: 3.7

CC(=O)NCc1c(F)ccc(N(C)C(=O)c2c(C(F)(F)F)c(C(F)(F)C(F)(F)F)nn2C)c1F [Example 7, N-[3-(acetamidomethyl)-2,4-difluorophenyl]-N,1-dimethyl-3-(pentafluoroethyl)-4-(trifluoromethyl)-1H-pyrazole-5-carboxamide]
inhibition at 100 g/ha ([3]; PHAECO, 7 dat): 100% | inhibition at 500 g/ha [4, 8]: 100% | chromatographic logP [7]: 2.85 | inhibition at 500 g/ha [5, 9]: 100%

CCC(=O)NCc1cc(N(C)C(=O)c2c(C(F)(F)F)c(C(F)(F)C(F)(F)F)nn2C)ccc1F [Example 1]
inhibition at 20 g/ha [3]: 100% | inhibition at 500 g/ha ([4]; Tetranychus urticae, foliar, 144 h, read-out: % Activity): 100% | inhibition at 20 g/ha ([5]; Myzus persicae, 144 h, read-out: % Activity): 90%

CCC(=O)NC(C)c1cc(NC(=O)c2c(C(F)(F)F)c(C(F)(F)C(F)(F)F)nn2C)ccc1Cl (centres unmarked) [Am-28, N-{4-chloro-3-[1-(propionylamino)ethyl]phenyl}-1-methyl-3-(pentafluoroethyl)-4-(trifluoromethyl)-1H-pyrazole-5-carboxamide]
chromatographic logP [7]: 3.55

Cn1nc(C(F)(F)C(F)(F)F)c([N+](=O)[O-])c1C(=O)O [1-Methyl-4-nitro-3-(pentafluoroethyl)-1H-pyrazole-5-carboxylic acid]
chromatographic logP [7]: 1.41

CC(C)NC(=O)c1cc(NC(=O)c2c(C(F)(F)F)c(C(F)(F)C(F)(F)F)nn2C)ccc1F [Example Ik-75, reference compound]
inhibition at 20 g/ha ([3]; PHAECO, 20 g/ha, 7 dat): 0% | inhibition at 100 g/ha ([4]; Tetranychus urticae, foliar, 144 h, TETRUR, 100 g/ha, 6 dat, read-out: % Activity): 0% | inhibition at 500 g/ha [4, 8]: 0% | inhibition at 100 g/ha ([5]; Myzus persicae, 144 h, MYZUPE, 100 g/ha, 6 dat, read-out: % Activity): 0% | inhibition at 500 g/ha [5, 9]: 0%

CC(=O)NCc1cc(NC(=O)c2c(C(F)(F)F)c(C(F)(F)C(F)(F)F)nn2C)ccc1F [Example 13]
inhibition at 20 ppm [1]: 90% | inhibition at 20 ppm [2]: 30%
